Like-named read-outs stand apart in the source and are kept apart here.
What was measured:
Type in all cases: cell-based
[1] = test system: Candida albicans ATCC 10231; assay: MIC/CFM by microdilution (CLSI M27-A2); settings: Candida albicans, ATCC10231, read-out: MIC
[2] = test system: Candida tropicalis USP B3; assay: MIC by microdilution (CLSI M27-A2)
[3] = test system: Candida tropicalis USP 1658; assay: MIC by microdilution (CLSI M27-A2)
[4] = test system: Candida parapsilosis ATCC 22019; assay: MIC/CFM by microdilution (CLSI M27-A2)
[5] = test system: Candida parapsilosis USP 1933; assay: MIC/CFM by microdilution (CLSI M27-A2)
[6] = test system: Candida albicans USP 1565; assay: MIC by microdilution (CLSI M27-A2)
[7] = test system: Candida guilhermondii USP; assay: MIC/CFM by microdilution (CLSI M27-A2)
[8] = test system: Candida krusei ATCC 6258; assay: MIC/CFM by microdilution (CLSI M27-A2)
[9] = test system: Candida krusei USP 2223; assay: MIC by microdilution (CLSI M27-A2)
[10] = test system: Candida albicans OF-M3-20; assay: MIC/CFM by microdilution (CLSI M27-A2)
Procedure: (§1) Pure substances termed P1 and P2 previously dissolved in 20% DMSO, were diluted in RPMI medium, with final concentrations of 96 μg.mL-1. […] The same was also tested individually, diluted in RPMI medium, with initial concentration of 1 μL.mL-1. […] Cultures of Candida sp. were prepared and standardized in […] saline solution at 0.85%. For inoculums standardization, a spectrophotometer equipment was used, with wavelength at 530 nm and absorbance adjustment between 0.130 and 0.150, having as white the saline solution free of inoculum or any other contaminant, corresponding to concentrations of 10^6 CFU/mL. In this condition the inoculum “mother” was diluted 50 times and from this inoculum “child” the dilution was performed 20 times to obtain a standard inoculum in 10^3 cells per well. […] To aid in the growth view, were added to the wells dye 50 μL 2,3,5-triphenyltetrazolium chloride (TTC) at 5 mg.mL “1, being performed the readings after 4 hours of incubation. Prior to the addition of dye, aliquots of 96-well plate were transferred to Petri with Agar-Sabouraud Dextrose to determine the Minimum Fungicidal Concentration. Plates were incubated for 24 hours at 35° C.

[11] = test system: Candida albicans OF-M7-19; assay: MIC/CFM by microdilution (CLSI M27-A2)
Procedure: as §1

[12] = test system: Candida albicans USP 1; assay: MIC/CFM by microdilution (CLSI M27-A2)
Procedure: as §1

[13] = test system: Microsporum canis ATCC 32903; assay: MIC by microdilution, filamentous fungi (CLSI M38-A); settings: Table 13, Microsporum canis ATCC 32903, 7 days, 28° C.
Procedure: (§2) Pure substances termed P1 and P2 previously dissolved in 20% DMSO, were diluted in RPMI medium, with final concentrations of 96 μg.mL-1. […] Cultures of filamentous fungi described below were inoculated in Agar-Batata Dextrose medium and inoculated for 7 days, at 28° C. Colonies of cultures inoculated for 7 days in an oven at 28° C. were shrouded with 0.85% saline solution, scraped and then transferred to conical tubes. After resting for 5 minutes, the supernatant was transferred to new conical tubes for subsequent quantification in spectrophotometer, at 530 nm, with the transmittance adjustment of 80-82% for A. niger and 70% for other microorganisms. After adjustment, there was a 1:50 dilution in RPM. The determination of Minimum Inhibitory Concentration was performed after 7 days, at 28° C. After the incubation period, aliquots of 96-well plates were transferred to Petri plates with Potato Dextrose Agar, to determine the Minimum Fungicidal Concentration. Plates were inoculated for more 7 days, at 28° C.

[14] = test system: Phomopsis longicolla (soy isolate); assay: as above; settings: Table 13, Phomopsis longicolla- soy, 7 days, 28° C.
Procedure: as §2

[15] = test system: Trichophyton menthagrophyton ATCC 9533; assay: as above; settings: Table 13, Trichophyton menthagrophyton ATCC 9533, 7 days, 28° C.
Procedure: as §2

[16] = test system: C. Albicans USP 2; assay: MIC/CFM against Candida sp. strains; settings: Table 14, C. Albicans USP 2
[17] = test system: Candida glabrata ATCC; assay: MIC/CFM against Candida sp. strains; settings: Nakaseomyces glabratus; Table 14, Candida glabrata ATCC
[18] = test system: Trichophyton rubrum ATCC MYA-3108; assay: MIC by microdilution, filamentous fungi (CLSI M38-A); settings: Table 11, Trichophyton rubrum ATCC MYA-3108
[19] = test system: Candida albicans ATCC 10231; assay: Diffusion in Agar, halo of inhibition; set-up: unit not given here; settings: 20 μL per hole, 48 hours at 37° C., controls 80 μg · mL^−1
Procedure: (§3) Cultures of yeasts described below were inoculated in Agar-Sabouraud Dextrose medium and inoculated for 24 hours, at 35° C. Cultures of Candida sp. were prepared and standardized in […] saline solution at 0.85%. For inoculum standardization a spectrophotometer equipment was used with wavelength at 530 nm and absorbance adjustment between 0.130 and 0.150, having as white the saline solution free of inoculum or any other contaminant, corresponding to concentrations of 10^6 CFU/mL. In Petri plates (150×15 mm), were distributed RPMI medium with 0.8% Agar. To these plates, it was added 1 mL of the microorganism suspension in the concentration of 10^6 CFU/mL. After inundation, the suspension excess was removed with the aid of a pipette. With the plate surface already dry, hole of approximately 6.0 mm were made, adding to each hole 20 μL of the samples and control. The plates were then incubated for 48 hours at 37° C., when halo of inhibitions were measured.

[20] = test system: Candida guilhermondii USP; assay: Diffusion in Agar, halo of inhibition; set-up: unit not given here; settings: Candida guilhemondii USP; 20 μL per hole, 48 hours at 37° C.; controls 80 μg · mL^−1
Procedure: as §3

[21] = test system: Candida krusei ATCC 6258; assay: Diffusion in Agar, halo of inhibition; set-up: unit not given here; settings: 20 μL per hole, 48 hours at 37° C., controls 80 μg · mL^−1
Procedure: as §3

[22] = test system: Candida parapsilosis ATCC 22019; assay: Diffusion in Agar, halo of inhibition; set-up: unit not given here; settings: 20 μL per hole, 48 hours at 37° C., controls 80 μg · mL^−1
Procedure: as §3

[23] = test system: Candida tropicalis USP B3; assay: Diffusion in Agar, halo of inhibition; set-up: unit not given here; settings: 20 μL per hole, 48 hours at 37° C., controls 80 μg · mL^−1
Procedure: as §3

C[C@@H]1O[C@@H](O[C@@H]2[C@@H](O)[C@H](OCCc3ccc(O)c(O)c3)O[C@H](CO)[C@H]2OC(=O)/C=C/c2ccc(O)c(O)c2)[C@H](O)[C@H](O)[C@H]1O [Fraction P2, verbascoside]
12 µg/mL: MIC ([13]; ATCC32903, 168 h, read-out: MIC)
16 µg/mL: MIC ([14]; Diaporthe longicolla, 168 h, read-out: MIC)
1.5 µg/mL: MIC ([1]; Table 14, C. Albicans ATCC 10231) | MIC ([2]; Candida tropicalis, USPB3, Table 14, C. Tropicalis UPS B3, read-out: MIC) | MIC ([3]; Candida tropicalis, USP1658, Table 12, C. tropicalis USP 1658, 48 h, 35° C., read-out: MIC) | MIC ([4]; Lodderomyces parapsilosis, ATCC22019, Table 14, C. parapsilosis ATCC 22019, read-out: MIC) | MIC ([5]; Lodderomyces parapsilosis, USP1933, Table 14, C. parapsilosis USP 1933 ATCC, read-out: MIC) | MIC ([8]; Pichia kudriavzevii, ATCC6258, Table 14, C. krusei ATCC, read-out: MIC) | MIC ([9]; Pichia kudriavzevii, USP2223, Table 14, C. krusei USP 2223, read-out: MIC) | MIC ([10]; Candida albicans, OFM320, Table 14, C. Albicans OF M3-20, read-out: MIC) | MIC ([12]; Candida albicans, USP1, Table 14, C. Albicans USP 1, read-out: MIC) | MIC [16]
3 µg/mL: MIC ([1]; Table 12, C. albicans ATCC 10231, 48 h, 35° C.)
0.75 µg/mL: MIC ([5]; Lodderomyces parapsilosis, USP1933, Table 12, C. parapsilosis USP 1933, 48 h, 35° C., read-out: MIC) | MIC ([7]; Table 14, Candida guilhermondi USPATCC, read-out: MIC) | MIC ([9]; Pichia kudriavzevii, USP2223, Table 12, C. krusei USP 2223, 48 h, 35° C., read-out: MIC) | MIC ([11]; Candida albicans, OFM719, Table 14, C. Albicans OF M7-19, read-out: MIC) | MIC [17]
48 µg/mL: MIC ([15]; ATCC9533, 168 h, read-out: MIC)
0.375 µg/mL: MIC ([4]; Lodderomyces parapsilosis, ATCC22019, Table 12, C. parapsilosis ATCC 22019, 48 h, 35° C., read-out: MIC) | MIC ([6]; Candida albicans, USP1565, Table 12, C. albicans USP 1565, 48 h, 35° C., read-out: MIC) | MIC ([7]; Candida, Table 12, C. guilhermondii USP, 48 h, 35° C., read-out: MIC) | MIC ([8]; Pichia kudriavzevii, ATCC6258, Table 12, C. krusei ATCC 6258, 48 h, 35° C., read-out: MIC) | MIC ([10]; Candida albicans, OFM320, Table 12, C. albicans OF M3-20, 48 h, 35° C., read-out: MIC) | MIC ([11]; Candida albicans, OFM719, Table 12, C. albicans OF M7-19, 48 h, 35° C., read-out: MIC) | MIC ([12]; Candida albicans, USP1, Table 12, C. albicans USP 1, 48 h, 35° C., read-out: MIC)

Nistatina
6.125 µg/mL: MIC ([3]; Table 12, C. tropicalis USP 1658, 48 h, 35° C.)
1.1: Halo of inhibition [20]
12.5 µg/mL: MIC ([5]; Table 12, C. parapsilosis USP 1933, 48 h, 35° C.) | MIC ([10]; Table 12, C. albicans OF M3-20, 48 h, 35° C.) | MIC ([11]; Table 12, C. albicans OF M7-19, 48 h, 35° C.) | MIC [13] | MIC [15]
0: Halo of inhibition [23]
1.2: Halo of inhibition [21]
3.125 µg/mL: MIC ([7]; Table 11, C. guilhermondii USP) | MIC [18] | MIC [14]
6.25 µg/mL: MIC ([2]; Table 11, C. Tropicalis USP B3) | MIC ([3]; Table 11, C. Tropicalis USP 1658) | MIC ([4]; Table 12, C. parapsilosis ATCC 22019, 48 h, 35° C.) | MIC ([5]; Table 11, C. parapsilosis USP 1933) | MIC ([6]; Table 11, C. Albicans USP 1565) | MIC ([6]; Table 12, C. albicans USP 1565, 48 h, 35° C.) | MIC ([7]; Table 12, C. guilhermondii USP, 48 h, 35° C.) | MIC ([8]; Table 11, C. krusei ATCC 6258) | MIC ([8]; Table 12, C. krusei ATCC 6258, 48 h, 35° C.) | MIC ([9]; Table 11, C. krusei ATCC 2223) | MIC ([9]; Table 12, C. krusei USP 2223, 48 h, 35° C.) | MIC ([12]; Table 12, C. albicans USP 1, 48 h, 35° C.)
1.5: Halo of inhibition [19]
1.6: Halo of inhibition [22]
